Assay results as given in ChEMBL document CHEMBL1159288, “Anti-AIDS agents, 21. Triterpenoid saponins as anti-HIV principles from fruits of Gleditsia japonica and Gymnocladus chinensis, and a structure-activity correlation” (J Nat Prod, 1995).

Tests used:
[1] = test system: Human immunodeficiency virus 1; assay: Antiviral activity against HIV1 3B in human H9 cells assessed as inhibition of viral replication after 3 days by p24 antigen capture assay; format: functional, organism-based; details: Human immunodeficiency virus 1, 3B, H9, 72 h
H9 = assay: Cytotoxicity against human H9 cells after 3 days; format: cell-based; details: H9, 72 h
[2] = Therapeutic index, ratio of IC50 for human H9 cells to EC50 for HIV1 3B; format: cell-based; details: H9 cells (cytotoxicity) and HIV-1 3B (antiviral), read-out: TI

SMILES | EC50 [1] [µM] | IC50 (H9) [µM] | selectivity ratio [2]
COC(=O)[C@]12CCC(C)(C)C[C@@H]1C1=CC[C@@H]3[C@@]4(C)CC[C@H](OC(C)=O)C(C)(C)[C@@H]4CC[C@@]3(C)[C@]1(C)C[C@H]2O | 5.1 | 7.6 | 1.5
CC(=O)O[C@H]1CC[C@]2(C)[C@H]3CC=C4[C@H]5CC(C)(C)CC[C@]5(C(=O)O)[C@H](OC(C)=O)C[C@@]4(C)[C@]3(C)CC[C@H]2C1(C)C | 2.3 | 13 | 5.4
COC(=O)[C@]12CCC(C)(C)C[C@@H]1C1=CC[C@@H]3[C@@]4(C)CC[C@H](O)C(C)(C)[C@@H]4CC[C@@]3(C)[C@]1(C)C[C@H]2O [METHYL ECHINOCYSTATE] | 3.1 | 4.9 | 1.6
COC(=O)[C@]12CCC(C)(C)C[C@@H]1C1=CC[C@@H]3[C@@]4(C)CC[C@H](O[C@@H]5O[C@H](CO[C@@H]6OC[C@H](O)[C@H](O)[C@H]6O[C@@H]6OC[C@@H](O)[C@H](O)[C@H]6O)[C@@H](O)[C@H](O)[C@H]5O)C(C)(C)[C@@H]4CC[C@@]3(C)[C@]1(C)C[C@H]2O | 9.9 | 22 | 2.2
C=C[C@](C)(CC/C=C(\C)C(=O)O[C@H]1C[C@@]2(C(=O)O[C@@H]3O[C@H](CO[C@@H]4O[C@@H](C)[C@H](O)[C@@H](O)[C@H]4O)[C@@H](O)[C@H](O)[C@H]3O[C@@H]3O[C@@H](C)[C@H](O[C@@H]4OC[C@@H](O)[C@H](O[C@@H]5OC[C@@H](O)[C@H](O)[C@H]5O)[C@H]4O)[C@@H](O)[C@H]3O)[C@H](CC1(C)C)C1=CC[C@@H]3[C@@]4(C)C[C@H](O)[C@H](O[C@@H]5O[C@H](CO[C@@H]6OC[C@H](O)[C@H](O)[C@H]6O[C@@H]6OC[C@@H](O)[C@H](O)[C@H]6O)[C@@H](O)[C@H](O)[C@H]5O)[C@@](C)(CO)[C@@H]4CC[C@@]3(C)[C@]1(C)C[C@@H]2O)O[C@@H]1OC[C@H](OC(=O)CC(C)C)[C@H](O[C@@H]2O[C@H](CO)[C@@H](O)[C@H](O)[C@H]2O)[C@H]1O [GYMNOCLADUS SAPONIN G] | 2.7 | 14 | 5.2
CC1(C)CC[C@]2(C(=O)O)[C@H](O)C[C@]3(C)C(=CC[C@@H]4[C@@]5(C)CC[C@H](O[C@@H]6O[C@H](CO[C@@H]7OC[C@H](O)[C@H](O)[C@H]7O)[C@@H](O)[C@H](O)[C@H]6O)C(C)(C)[C@@H]5CC[C@]43C)[C@H]2C1 | 13 | 50 | 3.8
CC1(C)C[C@@H]2C3=CC[C@@H]4[C@@]5(C)C[C@H](O)[C@H](O)[C@@](C)(CO)[C@@H]5CC[C@@]4(C)[C@]3(C)C[C@H](O)[C@@]23C[C@@H]1OC3=O | 8 | 40 | 5
C[C@@H]1O[C@@H](OC[C@H]2O[C@@H](OC(=O)[C@]34CCC(C)(C)C[C@@H]3C3=CC[C@@H]5[C@@]6(C)CC[C@H](O[C@@H]7O[C@H](CO[C@@H]8OC[C@H](O)[C@H](O)[C@H]8O[C@@H]8OC[C@@H](O)[C@H](O)[C@H]8O)[C@@H](O)[C@H](O)[C@H]7O)C(C)(C)[C@@H]6CC[C@@]5(C)[C@]3(C)C[C@H]4O)[C@H](O[C@@H]3O[C@@H](C)[C@H](O[C@@H]4OC[C@@H](O)[C@H](O[C@@H]5OC[C@@H](O)[C@H](O)[C@H]5O)[C@H]4O)[C@@H](O)[C@H]3O)[C@@H](O)[C@@H]2O)[C@H](O)[C@H](O)[C@H]1O | > 100 | 43 | –
CCCC(=O)O[C@H]1CC[C@]2(C)[C@H]3CC=C4[C@H]5CC(C)(C)CC[C@]5(C(=O)OC)[C@H](O)C[C@@]4(C)[C@]3(C)CC[C@H]2C1(C)C | 27 | 27 | 1
CC1(C)CC[C@]2(C(=O)O)[C@H](O)C[C@]3(C)C(=CC[C@@H]4[C@@]5(C)CC[C@H](O[C@@H]6O[C@H](CO[C@@H]7OC[C@H](O)[C@H](O)[C@H]7O[C@@H]7OC[C@@H](O)[C@H](O)[C@H]7O)[C@@H](O)[C@H](O)[C@H]6O)C(C)(C)[C@@H]5CC[C@]43C)[C@H]2C1 | > 100 | 37 | –
C=C[C@@](C)(O)CC/C=C(\C)C(=O)O[C@H]1[C@H](OC[C@H]2O[C@@H](OC(=O)[C@]34CCC(C)(C)C[C@@H]3C3=CC[C@@H]5[C@@]6(C)CC[C@H](O[C@@H]7O[C@H](CO[C@@H]8OC[C@H](O)[C@H](O)[C@H]8O[C@@H]8OC[C@@H](O)[C@H](O)[C@H]8O)[C@@H](O)[C@H](O)[C@H]7O)C(C)(C)[C@@H]6CC[C@@]5(C)[C@]3(C)C[C@H]4O)[C@H](O[C@@H]3O[C@@H](C)[C@H](O[C@@H]4OC[C@@H](O)[C@H](O[C@@H]5OC[C@@H](O)[C@H](O)[C@H]5O)[C@H]4O)[C@@H](O)[C@H]3O)[C@@H](O)[C@@H]2O)O[C@@H](C)[C@H](O)[C@H]1OC(=O)/C(=C/CC[C@](C)(O)C=C)CO [GLEDITSIA SAPONIN C] | 1.1 | 9.8 | 8.9
CC1(C)C[C@@H]2C3=CC[C@@H]4[C@@]5(C)C[C@H](O)[C@H](O[C@@H]6O[C@H](CO[C@@H]7OC[C@H](O)[C@H](O)[C@H]7O[C@@H]7OC[C@@H](O)[C@H](O)[C@H]7O)[C@@H](O)[C@H](O)[C@H]6O)[C@@](C)(CO)[C@@H]5CC[C@@]4(C)[C@]3(C)C[C@H](O)[C@@]23C[C@@H]1OC3=O | 100 | > 100 | > 1
CC1(C)CC[C@]2(C(=O)O)[C@H](O)C[C@]3(C)C(=CC[C@@H]4[C@@]5(C)CC[C@H](O)C(C)(C)[C@@H]5CC[C@]43C)[C@H]2C1 [ECHINOCYSTIC ACID] | 42 | 74 | –
CCCC(=O)O[C@H]1CC[C@]2(C)[C@H]3CC=C4[C@H]5CC(C)(C)CC[C@]5(C(=O)OC)[C@H](OC(=O)CCC)C[C@@]4(C)[C@]3(C)CC[C@H]2C1(C)C | 15 | > 160 | > 11
CCCCC(=O)O[C@H]1CC[C@]2(C)[C@H]3CC=C4[C@H]5CC(C)(C)CC[C@]5(C(=O)OC)[C@H](OC(=O)CCCC)C[C@@]4(C)[C@]3(C)CC[C@H]2C1(C)C | 31 | 54 | 1.8
CC1(C)CC[C@]2(C(=O)O)[C@H](O)C[C@]3(C)C(=CC[C@@H]4[C@@]5(C)CC[C@H](O)C(C)(C)[C@@H]5CC[C@]43C)[C@@H]2C1 [ECHINOCYSTIC ACID] | – | – | 1.8
CCCCC(=O)O[C@H]1CC[C@]2(C)[C@H]3CC=C4[C@H]5CC(C)(C)CC[C@]5(C(=O)OC)[C@H](O)C[C@@]4(C)[C@]3(C)CC[C@H]2C1(C)C | 30 | 180 | 5.9
